Test [1] concerns the target T1, Trace amine-associated receptor 1 (Homo sapiens) (UniProt Q96RJ0).
T1 sequence (whole entry): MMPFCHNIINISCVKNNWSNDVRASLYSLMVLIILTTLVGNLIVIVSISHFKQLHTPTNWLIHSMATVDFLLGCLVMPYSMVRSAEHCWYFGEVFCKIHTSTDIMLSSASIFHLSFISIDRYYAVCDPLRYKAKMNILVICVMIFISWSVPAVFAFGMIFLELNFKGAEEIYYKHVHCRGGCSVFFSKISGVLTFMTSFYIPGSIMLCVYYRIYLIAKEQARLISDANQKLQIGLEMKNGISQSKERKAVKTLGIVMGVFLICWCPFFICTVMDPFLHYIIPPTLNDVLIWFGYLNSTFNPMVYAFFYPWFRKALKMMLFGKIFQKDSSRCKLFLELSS
In words: Agonist activity at human TAAR1 expressed in HEK293 cells assessed as increase in cAMP release after 30 mins by BRET assay. The class given is functional, cell-based. A general note: BRET reads energy transfer from a luciferase to a nearby fluorophore.

For test [2], the target named is T2, Trace amine-associated receptor 5 (Mus musculus) (UniProt Q5QD14).
T2 sequence (whole entry): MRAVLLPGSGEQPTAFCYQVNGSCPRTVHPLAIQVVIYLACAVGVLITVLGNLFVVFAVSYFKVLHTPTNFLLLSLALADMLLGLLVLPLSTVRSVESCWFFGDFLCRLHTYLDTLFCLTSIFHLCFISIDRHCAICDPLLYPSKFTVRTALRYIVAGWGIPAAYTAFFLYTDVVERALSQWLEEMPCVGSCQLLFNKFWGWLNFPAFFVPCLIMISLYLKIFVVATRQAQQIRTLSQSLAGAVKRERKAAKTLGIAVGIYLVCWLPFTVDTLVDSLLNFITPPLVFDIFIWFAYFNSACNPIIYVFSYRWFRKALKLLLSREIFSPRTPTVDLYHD
In words: (§1) Agonist activity at mouse TAAR5 expressed in HEK293 cells assessed as increase in cAMP release after 30 mins by BRET assay relative to control. Type of test: functional, cell-based.

Test [3] has as its target T3, Trace amine-associated receptor 5 (Mus musculus, UniProt Q5QD14).
T3 sequence (Q5QD14 whole entry): T2 sequence (whole entry)
The description is as §1. Type of test: functional, cell-based.

The target in test [4] is T3, Trace amine-associated receptor 5. Description: Antagonist activity at mouse TAAR5 expressed in HEK293 cells assessed as inhibition of agonist induced cAMP release preincubated for 5 mins followed by addition of agonist by BRET assay. Type of test: functional, cell-based.
Test [5] has as its target Trace amine-associated receptor 1 (Mus musculus, UniProt Q923Y8). In words: Antagonist activity at mouse TAAR1 expressed in HEK293 cells assessed as inhibition of agonist induced cAMP release preincubated for 5 mins followed by addition of agonist by BRET assay. Type of test: functional, cell-based.
The species entered for a further test is Mus musculus. In words: Selectivity ratio of IC50 for mouse TAAR1 to IC50 for mouse TAAR5.

Sequence of Trace amine-associated receptor 1 (Q923Y8 whole entry, the tested form may be a part): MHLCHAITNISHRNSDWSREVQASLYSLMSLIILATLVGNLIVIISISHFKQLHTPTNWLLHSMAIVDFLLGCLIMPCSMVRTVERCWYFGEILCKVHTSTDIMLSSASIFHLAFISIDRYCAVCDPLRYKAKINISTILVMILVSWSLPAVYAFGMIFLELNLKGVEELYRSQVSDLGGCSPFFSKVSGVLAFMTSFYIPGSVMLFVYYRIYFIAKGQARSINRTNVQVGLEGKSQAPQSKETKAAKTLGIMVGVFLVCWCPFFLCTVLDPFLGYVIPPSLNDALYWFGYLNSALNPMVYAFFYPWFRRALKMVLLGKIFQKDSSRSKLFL

In the case of `NCCc1ccc(Oc2ccc(O)cc2)c(I)c1`, the fold change (FC) in test [1] is 16; in test [2] it was 2.
What is called EC50 is the midpoint of the concentration-response curve. For `CN(C)C` [TRIMETHYLAMMONIUM], the concentration for a half-maximal effect (EC50) in test [3] worked out at 2.1 µM.
By IC50 is commonly meant the concentration that inhibits the measured activity by half. Take `COc1ccccc1N1CCN(CC2CCC(c3ccccc3)(c3ccccc3)O2)CC1` (stereo not drawn): the figures for the IC50 in test [4] and in test [5] were 4.8 µM and more than 100 µM, respectively. Also, the Ratio IC50 in the test filed under Mus musculus was more than 20.
For `COc1ccccc1OCCNCC1CCC(c2ccccc2)(c2ccccc2)O1` (stereo not drawn), the values for the IC50 in test [4] and in test [5] were 29 µM and more than 100 µM, respectively.

(Values after ChEMBL document CHEMBL3784953, “A homology modelling-driven study leading to the discovery of the first mouse trace amine-associated receptor 5 (TAAR5) antagonists” (Medchemcomm, 2016).)
